{
  "source": "paper PMC4861708",
  "about": "(Frontiers in Cell and Developmental Biology, 2016)",
  "key": {"[1]": {"system": "P. aeruginosa DSM 1117", "experiment": "Transmission electron microscopy, morphological changes", "assay_type": "cell-based, Pseudomonas aeruginosa", "details": "1 h", "description": "Peptide-bacteria mixtures were fixed (2% glutaraldehyde, 5 mmol/L CaCl2, 10 mmol/L MgCl2 in 0.1 mol/L sodium cacodylate buffer, pH 7.4) overnight at 4°C. […] Samples were rinsed with distilled water (5 × 10 min), incubated with aqueous uranylacetate (0.5% w/v) for 1 h at 4°C, washed with distilled water (3 × 10 min), and embedded in Epon. The hardened blocks were sectioned (50 nm) on a UCT ultramicrotome (Leica, Vienna, Austria), stained with uranyl acetate and lead citrate on an AC20 system (Leica), and visualized at a Tecnai 12 electron microscope (FEI, Eindhoven, The Netherlands) at 80 kV. Morphological effects were quantified on average for 25 cells per condition."}, "[2]": {"biological_target": "T1, P. aeruginosa elastase (Pseudomonas aeruginosa, UniProt P14756)", "T1 construct": "purchased Merck (Darmstadt, Germany)", "T1 sequence (P14756 198-498)": "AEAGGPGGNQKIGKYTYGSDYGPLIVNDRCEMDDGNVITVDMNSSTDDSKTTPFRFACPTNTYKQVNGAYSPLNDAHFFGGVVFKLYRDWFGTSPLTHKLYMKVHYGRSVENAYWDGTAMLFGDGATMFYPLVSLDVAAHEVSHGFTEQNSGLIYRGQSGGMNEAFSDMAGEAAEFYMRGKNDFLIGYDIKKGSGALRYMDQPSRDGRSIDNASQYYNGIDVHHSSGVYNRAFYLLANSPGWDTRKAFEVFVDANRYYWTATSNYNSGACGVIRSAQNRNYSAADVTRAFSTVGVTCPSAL", "experiment": "Elastase assay (proteolytic stability)", "assay_type": "in vitro ADME", "details": "Pseudomonas aeruginosa, isolated enzyme elastase; after 6 h, elastase 12 units/mL, pH 8.3, 37°C; read-out: Peptide remaining with elastase", "description": "A stock solution of P. aeruginosa elastase (0.26 U/μL) was prepared in Tris-HCl (5 mmol/L, pH 8.3) and stored at −80°C. Peptides (0.5 g/L in 5 mmol/L Tris-HCl, pH 8.3) were incubated with elastase (0.012 U/μL) at 37°C under constant shaking (450 rpm) for 0, 0.5, 2, 4, and 6 h. Aliquots (10.5 μL) were precipitated with a mixture of acetonitrile and ethanol (1:1 v/v) containing 0.1% TFA (21 μL), centrifuged, the supernatant transferred into a new tube, and dried in vacuum. Samples were dissolved in aqueous acetonitrile (3% v/v) containing TFA (0.1% v/v) and analyzed by RP-HPLC using the conditions described above."}, "[3]": {"system": "E. coli DSM 1103 (ATCC 25922)", "assay_type": "cell-based, Escherichia coli", "details": "DSM 1103, 24 h", "description": "(§1) MICs of P. aeruginosa strains DSM 1117 (ATCC 27853), DSM 3227 (ATCC 19429), and DSM 9644 were determined in a microdilution broth assay using 50 or 100% MHB (11.5 and 23 g/L MHB, respectively) whereas MICs of E. coli DSM 1103 (ATCC 25922) and K. pneumoniae DSM 681 (ATCC 10031) were determined in TSB (30 g/L TSB). Peptides (1 g/L in water) were serially two-fold diluted in a 96-well microtiter plate (PS, sterile, flat bottom) in 50 μL of the corresponding medium to final concentrations of 512–4 μg/mL. Bacteria were grown in nutrient broth overnight and diluted to a cell concentration of 1.5 × 10^7 cells/mL in the corresponding medium. Cell densities were determined by using the McFarland standard as reference. An aliquot (50 μL) of the cell culture was added to each well and incubated (37°C, 24 h). The OD595 was determined in a SpectraMax 340PC (Molecular Devices, Sunnyvale, USA). Additionally, MIC values were also determined for high bacteria densities (5 × 10^8 cells/mL) corresponding to the conditions used for TEM, as described above."}, "[4]": {"system": "P. aeruginosa DSM 1117 (ATCC 27853)", "assay_type": "cell-based, Pseudomonas aeruginosa", "details": "DSM 1117, 24 h", "description": "as §1"}, "[5]": {"system": "K. pneumoniae DSM 681 (ATCC 10031)", "assay_type": "cell-based, Klebsiella pneumoniae", "details": "DSM 681, 24 h", "description": "as §1"}},
  "note": "Where a SMILES comes first, the peptide text is derived from it. [ ]: non-standard residue; d: D form. The star is where a group is joined. Orn(α-tetramethylguanidino) = CN(C)C(=N[C@@H](CCCN)C(=O)*)N(C)C; Orn = NCCC[C@H](N)C(=O)O",
  "data": [
    {"smiles": "CC(C)C[C@H](NC(=O)[C@H](CCCNC(=N)N)NC(=O)[C@@H]1CCCN1C(=O)[C@H](Cc1c[nH]cn1)NC(=O)[C@@H]1CCCN1C(=O)[C@@H]1CCCN1C(=O)[C@H](CCCNC(=N)N)NC(=O)[C@@H]1CCCN1C(=O)[C@H](CCCNC(=N)N)NC(=O)[C@@H]1CCCN1C(=O)[C@H](CCCN)NC(=O)[C@H](Cc1ccc(O)cc1)NC(=O)[C@@H](NC(=O)[C@@H]1CCCN1C(=O)[C@H](CCCNC(=N)N)NC(=O)[C@H](CCCN)NC(=O)[C@H](Cc1c[nH]c2ccccc12)NC(=O)[C@H](CCCN)NC(=O)[C@H](Cc1c[nH]c2ccccc12)NC(=O)[C@H](CCCN)NC(=O)[C@H](Cc1c[nH]c2ccccc12)NC(=O)[C@H](CCCN)N=C(N(C)C)N(C)C)C(C)C)C(=O)O", "note": "[Api794, gu-O(WO)3RPVYOPRPRPPHPRL-OH] ({Orn(α-tetramethylguanidino)}-W[Orn]W[Orn]W[Orn]RPVY[Orn]PRPRPPHPRL-OH)", "values": [
      {"measurement": "Cells spongy", "setting": "[1]; 16 µg/mL", "value": 0, "unit": "%"},
      {"measurement": "DNA/ribosomes relocalization: +++, extremely relocalized", "setting": "[1]; 16 µg/mL", "value": 0, "unit": "%"},
      {"measurement": "DNA/ribosomes relocalization: ++, relocalized", "setting": "[1]; 16 µg/mL", "value": 23, "unit": "%"},
      {"measurement": "DNA/ribosomes relocalization: +, starting", "setting": "[1]; 16 µg/mL", "value": 37, "unit": "%"},
      {"measurement": "DNA/ribosomes relocalization: -, no", "setting": "[1]; 16 µg/mL", "value": 40, "unit": "%"},
      {"measurement": "Membrane: b, broken", "setting": "[1]; 16 µg/mL", "value": 0, "unit": "%"},
      {"measurement": "Membrane: i, intact", "setting": "[1]; 16 µg/mL", "value": 100, "unit": "%"},
      {"measurement": "Membrane: r, ruptured", "setting": "[1]; 16 µg/mL", "value": 0, "unit": "%"},
      {"measurement": "Ribosome clustering: +++, extremely clustered", "setting": "[1]; 16 µg/mL", "value": 0, "unit": "%"},
      {"measurement": "Ribosome clustering: ++, clustered", "setting": "[1]; 16 µg/mL", "value": 0, "unit": "%"},
      {"measurement": "Ribosome clustering: +, starting", "setting": "[1]; 16 µg/mL", "value": 80, "unit": "%"},
      {"measurement": "Ribosome clustering: -, no", "setting": "[1]; 16 µg/mL", "value": 20, "unit": "%"},
      {"measurement": "Vesicle release", "setting": "[1]; 16 µg/mL", "value": 87, "unit": "%"},
      {"measurement": "dissociated Fragments: +, small and thin", "setting": "[1]; 16 µg/mL", "value": 10, "unit": "%"},
      {"measurement": "dissociated Fragments: -, no", "setting": "[1]; 16 µg/mL", "value": 77, "unit": "%"},
      {"measurement": "dissociated Fragments: LV, large vesicles", "setting": "[1]; 16 µg/mL", "value": 0, "unit": "%"},
      {"measurement": "Cells spongy", "setting": "[1]; 64 µg/mL", "value": 0, "unit": "%"},
      {"measurement": "DNA/ribosomes relocalization: +++, extremely relocalized", "setting": "[1]; 64 µg/mL", "value": 83, "unit": "%"},
      {"measurement": "DNA/ribosomes relocalization: ++, relocalized", "setting": "[1]; 64 µg/mL", "value": 10, "unit": "%"},
      {"measurement": "DNA/ribosomes relocalization: +, starting", "setting": "[1]; 64 µg/mL", "value": 3, "unit": "%"},
      {"measurement": "DNA/ribosomes relocalization: -, no", "setting": "[1]; 64 µg/mL", "value": 3, "unit": "%"},
      {"measurement": "Membrane: b, broken", "setting": "[1]; 64 µg/mL", "value": 80, "unit": "%"},
      {"measurement": "Membrane: i, intact", "setting": "[1]; 64 µg/mL", "value": 20, "unit": "%"},
      {"measurement": "Membrane: r, ruptured", "setting": "[1]; 64 µg/mL", "value": 47, "unit": "%"},
      {"measurement": "Ribosome clustering: +++, extremely clustered", "setting": "[1]; 64 µg/mL", "value": 73, "unit": "%"},
      {"measurement": "Ribosome clustering: ++, clustered", "setting": "[1]; 64 µg/mL", "value": 10, "unit": "%"},
      {"measurement": "Ribosome clustering: -, no", "setting": "[1]; 64 µg/mL", "value": 3, "unit": "%"},
      {"measurement": "Vesicle release", "setting": "[1]; 64 µg/mL", "value": 20, "unit": "%"},
      {"measurement": "dissociated Fragments: ++, long and thin", "setting": "[1]; 64 µg/mL", "value": 63, "unit": "%"},
      {"measurement": "dissociated Fragments: +, small and thin", "setting": "[1]; 64 µg/mL", "value": 20, "unit": "%"},
      {"measurement": "dissociated Fragments: LV, large vesicles", "setting": "[1]; 64 µg/mL", "value": 30, "unit": "%"},
      {"measurement": "Cells spongy", "setting": "[1]; 256 µg/mL", "value": 80, "unit": "%"},
      {"measurement": "DNA/ribosomes relocalization: +++, extremely relocalized", "setting": "[1]; 256 µg/mL", "value": 100, "unit": "%"},
      {"measurement": "DNA/ribosomes relocalization: ++, relocalized", "setting": "[1]; 256 µg/mL", "value": 0, "unit": "%"},
      {"measurement": "DNA/ribosomes relocalization: +, starting", "setting": "[1]; 256 µg/mL", "value": 0, "unit": "%"},
      {"measurement": "DNA/ribosomes relocalization: -, no", "setting": "[1]; 256 µg/mL", "value": 0, "unit": "%"},
      {"measurement": "Membrane: b, broken", "setting": "[1]; 256 µg/mL", "value": 67, "unit": "%"},
      {"measurement": "Membrane: i, intact", "setting": "[1]; 256 µg/mL", "value": 34, "unit": "%"},
      {"measurement": "Membrane: r, ruptured", "setting": "[1]; 256 µg/mL", "value": 67, "unit": "%"},
      {"measurement": "Ribosome clustering: +++, extremely clustered", "setting": "[1]; 256 µg/mL", "value": 100, "unit": "%"},
      {"measurement": "Ribosome clustering: ++, clustered", "setting": "[1]; 256 µg/mL", "value": 0, "unit": "%"},
      {"measurement": "Ribosome clustering: +, starting", "setting": "[1]; 256 µg/mL", "value": 0, "unit": "%"},
      {"measurement": "Ribosome clustering: -, no", "setting": "[1]; 256 µg/mL", "value": 0, "unit": "%"},
      {"measurement": "Vesicle release", "setting": "[1]; 256 µg/mL", "value": 3, "unit": "%"},
      {"measurement": "dissociated Fragments: ++, long and thin", "setting": "[1]; 256 µg/mL", "value": 80, "unit": "%"},
      {"measurement": "dissociated Fragments: -, no", "setting": "[1]; 256 µg/mL", "value": 7, "unit": "%"},
      {"measurement": "dissociated Fragments: LV, large vesicles", "setting": "[1]; 256 µg/mL", "value": 93, "unit": "%"},
      {"measurement": "Cells spongy", "setting": "[1]; 512 µg/mL", "value": 87, "unit": "%"},
      {"measurement": "DNA/ribosomes relocalization: +++, extremely relocalized", "setting": "[1]; 512 µg/mL", "value": 100, "unit": "%"},
      {"measurement": "DNA/ribosomes relocalization: ++, relocalized", "setting": "[1]; 512 µg/mL", "value": 0, "unit": "%"},
      {"measurement": "DNA/ribosomes relocalization: +, starting", "setting": "[1]; 512 µg/mL", "value": 0, "unit": "%"},
      {"measurement": "DNA/ribosomes relocalization: -, no", "setting": "[1]; 512 µg/mL", "value": 0, "unit": "%"},
      {"measurement": "Ribosome clustering: +++, extremely clustered", "setting": "[1]; 512 µg/mL", "value": 93, "unit": "%"},
      {"measurement": "Ribosome clustering: ++, clustered", "setting": "[1]; 512 µg/mL", "value": 7, "unit": "%"},
      {"measurement": "Ribosome clustering: +, starting", "setting": "[1]; 512 µg/mL", "value": 0, "unit": "%"},
      {"measurement": "Ribosome clustering: -, no", "setting": "[1]; 512 µg/mL", "value": 0, "unit": "%"},
      {"measurement": "Vesicle release", "setting": "[1]; 512 µg/mL", "value": 0, "unit": "%"},
      {"measurement": "dissociated Fragments: ++, long and thin", "setting": "[1]; 512 µg/mL", "value": 60, "unit": "%"},
      {"measurement": "dissociated Fragments: +, small and thin", "setting": "[1]; 512 µg/mL", "value": 0, "unit": "%"},
      {"measurement": "dissociated Fragments: -, no", "setting": "[1]; 512 µg/mL", "value": 40, "unit": "%"},
      {"measurement": "dissociated Fragments: LV, large vesicles", "setting": "[1]; 512 µg/mL", "value": 97, "unit": "%"},
      {"measurement": "remaining at 6 h, 0.5 g/L", "setting": "[2]", "value": "79 ± 6", "unit": "%"},
      {"measurement": "MIC E. coli ATCC 25922", "setting": "[3]", "value": 16, "unit": "µg/mL"},
      {"measurement": "MIC E. coli DSM 1103, high inoculum", "setting": "[3]", "value": 64, "unit": "µg/mL"},
      {"measurement": "MIC P. aeruginosa DSM 1117, high inoculum", "setting": "[4]", "value": 64, "unit": "µg/mL"},
      {"measurement": "MIC K. pneumoniae DSM 681", "setting": "[5]", "value": 32, "unit": "µg/mL"}
    ]}
  ]
}
